Test results: patent publication US20230085307A1, “PYRIDAZINONE COMPOUND AND HERBICIDE” (NISSAN CHEMICAL CORPORATION, priority 2019, published 2023)

Columns and labels:
[1] = system: late watergrass; assay: Test Example 2: herbicidal activity, application during weed generation under submerged conditions (Table 17, symbol A); format: in vivo, late watergrass (Echinochloa oryzicola); conditions: AAH 320 g/ha; application during weed generation, submerged conditions
Outline: (§1)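 3-wk visual-criteria score after one water-surface dose. Emulsion formulation, water-diluted to set rate; applied at 1–2 leaf stage; alluvial soil, 4 cm standing water; seeds co-sown; greenhouse 25–30° C.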

[2] = system: Japanese bulrush; assay: Test Example 2: herbicidal activity, application during weed generation under submerged conditions (Table 17, symbol B); format: in vivo, Japanese bulrush (Schoenoplectus juncoides); conditions: AAH 320 g/ha; application during weed generation, submerged conditions
Outline: as §1

[3] = system: oval-leafed pondweed; assay: Test Example 2: herbicidal activity, application during weed generation under submerged conditions (Table 17, symbol C); format: in vivo, oval-leafed pondweed (Monochoria vaginalis); conditions: AAH 320 g/ha; application during weed generation, submerged conditions
Outline: as §1

[4] = system: barnyard grass; assay: Test Example 3: herbicidal effect by foliage application, Wagner pot (Table 18, symbol H); format: in vivo, barnyard grass (Echinochloa crus-galli)
Outline: (§2)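 Plants were sown in alluvial soil held under 0.1–0.5 cm standing water and grown 14 days in a greenhouse at 25–30 °C. An emulsifiable formulation, water-diluted to the set dose, was then sprayed onto the foliage, and effects were scored three weeks later using previously defined criteria.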

[5] = system: Chinese sprangletop; assay: Test Example 3: herbicidal effect by foliage application, Wagner pot (Table 18, symbol D); format: in vivo, chinese sprangletop (Leptochloa chinensis)
Outline: as §2

[6] = system: rice flat sedge; assay: Test Example 3: herbicidal effect by foliage application, Wagner pot (Table 18, symbol E); format: in vivo, rice flat sedge (Cyperus iria)
Outline: as §2

[7] = system: southern crabgrass; assay: Test Example 4: herbicidal effect by soil treatment (Table 19, symbol F); format: in vivo, southern crabgrass (Digitaria ciliaris); conditions: amount of applied herbicide 320 g/ha
Outline: (§3)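 Soil-surface application: an emulsion agent diluted with water to the predetermined dose is sprayed uniformly over seeds lying under roughly 1.5 cm of sterilized diluvial soil. Boxes stay in a greenhouse at 25° C. to 30° C. Three weeks later, each species is graded on previously defined criteria.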

[8] = system: green foxtail; assay: Test Example 4: herbicidal effect by soil treatment (Table 19, symbol G); format: in vivo, green foxtail (Setaria viridis); conditions: amount of applied herbicide 320 g/ha
Outline: as §3

[9] = system: barnyard grass; assay: Test Example 4: herbicidal effect by soil treatment (Table 19, symbol H); format: in vivo, barnyard grass (Echinochloa crus-galli); conditions: amount of applied herbicide 320 g/ha
Outline: as §3

[10] = system: wild oat; assay: Test Example 4: herbicidal effect by soil treatment (Table 19, symbol I); format: in vivo, wild oat (Avena fatua); conditions: amount of applied herbicide 320 g/ha
Outline: as §3

[11] = system: blackgrass; assay: Test Example 4: herbicidal effect by soil treatment (Table 19, symbol J); format: in vivo, blackgrass (Alopecurus myosuroides); conditions: amount of applied herbicide 320 g/ha
Outline: as §3

[12] = system: Italian ryegrass; assay: Test Example 4: herbicidal effect by soil treatment (Table 19, symbol K); format: in vivo, Italian ryegrass (Lolium multiflorum); conditions: amount of applied herbicide 320 g/ha
Outline: as §3

[13] = system: windgrass; assay: Test Example 4: herbicidal effect by soil treatment (Table 19, symbol L); format: in vivo, windgrass (Apera spica-venti); conditions: amount of applied herbicide 320 g/ha
Outline: as §3

[14] = system: velvetleaf; assay: Test Example 4: herbicidal effect by soil treatment (Table 19, symbol M); format: in vivo, velvetleaf (Abutilon theophrasti); conditions: amount of applied herbicide 320 g/ha
Outline: as §3

[15] = system: redroot pigweed; assay: Test Example 4: herbicidal effect by soil treatment (Table 19, symbol N); format: in vivo, redroot pigweed (Amaranthus retroflexus); conditions: amount of applied herbicide 320 g/ha
Outline: as §3

[16] = system: lambsquarters; assay: Test Example 4: herbicidal effect by soil treatment (Table 19, symbol O); format: in vivo, lambsquarters (Chenopodium album); conditions: amount of applied herbicide 320 g/ha
Outline: as §3

[17] = system: chickweed; assay: Test Example 4: herbicidal effect by soil treatment (Table 19, symbol P); format: in vivo, common chickweed (Stellaria media); conditions: amount of applied herbicide 320 g/ha
Outline: as §3

[18] = system: persian speedwell; assay: Test Example 4: herbicidal effect by soil treatment (Table 19, symbol R); format: in vivo, Persian speedwell (Veronica persica); conditions: amount of applied herbicide 320 g/ha
Outline: as §3

[19] = system: southern crabgrass; assay: Test Example 5: herbicidal effect by foliage application, plastic box (Table 20, symbol F); format: in vivo, southern crabgrass (Digitaria ciliaris); conditions: 320 g/ha, evaluated three weeks after application
Outline: (§4)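 Sow seeds spot-wise in sterilized diluvial soil; cover with ~1.5 cm soil. Grow 14 days in greenhouse, 25° C. to 30° C. Spray foliage with emulsion diluted to predetermined amount. Rate effect after 3 weeks.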

[20] = system: green foxtail; assay: Test Example 5: herbicidal effect by foliage application, plastic box (Table 20, symbol G); format: in vivo, green foxtail (Setaria viridis); conditions: 320 g/ha, evaluated three weeks after application
Outline: as §4

[21] = system: barnyard grass; assay: Test Example 5: herbicidal effect by foliage application, plastic box (Table 20, symbol H); format: in vivo, barnyard grass (Echinochloa crus-galli); conditions: 320 g/ha, evaluated three weeks after application
Outline: as §4

[22] = system: wild oat; assay: Test Example 5: herbicidal effect by foliage application, plastic box (Table 20, symbol I); format: in vivo, wild oat (Avena fatua); conditions: 320 g/ha, evaluated three weeks after application
Outline: as §4

[23] = system: blackgrass; assay: Test Example 5: herbicidal effect by foliage application, plastic box (Table 20, symbol J); format: in vivo, blackgrass (Alopecurus myosuroides); conditions: 320 g/ha, evaluated three weeks after application
Outline: as §4

[24] = system: Italian ryegrass; assay: Test Example 5: herbicidal effect by foliage application, plastic box (Table 20, symbol K); format: in vivo, Italian ryegrass (Lolium multiflorum); conditions: 320 g/ha, evaluated three weeks after application
Outline: as §4

[25] = system: windgrass; assay: Test Example 5: herbicidal effect by foliage application, plastic box (Table 20, symbol L); format: in vivo, windgrass (Apera spica-venti); conditions: 320 g/ha, evaluated three weeks after application
Outline: as §4

[26] = system: velvetleaf; assay: Test Example 5: herbicidal effect by foliage application, plastic box (Table 20, symbol M); format: in vivo, velvetleaf (Abutilon theophrasti); conditions: 320 g/ha, evaluated three weeks after application
Outline: as §4

[27] = system: redroot pigweed; assay: Test Example 5: herbicidal effect by foliage application, plastic box (Table 20, symbol N); format: in vivo, redroot pigweed (Amaranthus retroflexus); conditions: 320 g/ha, evaluated three weeks after application
Outline: as §4

[28] = system: lambsquarters; assay: Test Example 5: herbicidal effect by foliage application, plastic box (Table 20, symbol O); format: in vivo, lambsquarters (Chenopodium album); conditions: 320 g/ha, evaluated three weeks after application
Outline: as §4

[29] = system: chickweed; assay: Test Example 5: herbicidal effect by foliage application, plastic box (Table 20, symbol P); format: in vivo, common chickweed (Stellaria media); conditions: 320 g/ha, evaluated three weeks after application
Outline: as §4

[30] = system: persian speedwell; assay: Test Example 5: herbicidal effect by foliage application, plastic box (Table 20, symbol R); format: in vivo, Persian speedwell (Veronica persica); conditions: 320 g/ha, evaluated three weeks after application
Outline: as §4

[31] = amount of applied herbicide 320 g/ha
[32] = foliage application after 14-day growth

Structure (SMILES): COc1ccc(-c2sc3ccc(Cl)cc3c2-c2c(O)c(C)nn(C)c2=O)cc1F [2-117]
- herbicidal effect rating, A: late watergrass [1]: 0 (Herbicidal rate of 5% or less (almost no effect))
- herbicidal effect rating, B: Japanese bulrush [2]: 2 (Herbicidal rate of 20% or more and less than 40%)
- herbicidal effect rating, C: oval-leafed pondweed [3]: 3 (Herbicidal rate of 40% or more and less than 70%)
- herbicidal effect on H: barnyard grass [4, 31]: 3 (Herbicidal rate of 40% or more and less than 70%)
- herbicidal effect on D: Chinese sprangletop [5, 31]: 3 (Herbicidal rate of 40% or more and less than 70%)
- herbicidal effect on E: rice flat sedge [6, 31]: 5 (Herbicidal rate of 90% or more (almost completely withered))
- F: southern crabgrass, herbicidal effect rating [7]: 0 (Herbicidal rate of 5% or less (almost no effect))
- G: green foxtail, herbicidal effect rating [8]: 0 (Herbicidal rate of 5% or less (almost no effect))
- H: barnyard grass, herbicidal effect rating [9]: 0 (Herbicidal rate of 5% or less (almost no effect))
- I: wild oat, herbicidal effect rating [10]: 0 (Herbicidal rate of 5% or less (almost no effect))
- J: blackgrass, herbicidal effect rating [11]: 0 (Herbicidal rate of 5% or less (almost no effect))
- K: Italian ryegrass, herbicidal effect rating [12]: 0 (Herbicidal rate of 5% or less (almost no effect))
- L: windgrass, herbicidal effect rating [13]: 0 (Herbicidal rate of 5% or less (almost no effect))
- M: velvetleaf, herbicidal effect rating [14]: 0 (Herbicidal rate of 5% or less (almost no effect))
- N: redroot pigweed, herbicidal effect rating [15]: 1 (Herbicidal rate of 5% or more and less than 20%)
- O: lambsquarters, herbicidal effect rating [16]: 3 (Herbicidal rate of 40% or more and less than 70%)
- P: chickweed, herbicidal effect rating [17]: 0 (Herbicidal rate of 5% or less (almost no effect))
- R: persian speedwell, herbicidal effect rating [18]: 1 (Herbicidal rate of 5% or more and less than 20%)
- herbicidal effect on F: southern crabgrass ([19]; foliage application): 0 (Herbicidal rate of 5% or less (almost no effect))
- herbicidal effect on G: green foxtail ([20]; foliage application): 0 (Herbicidal rate of 5% or less (almost no effect))
- herbicidal effect on H: barnyard grass ([21]; foliage application): 0 (Herbicidal rate of 5% or less (almost no effect))
- herbicidal effect on I: wild oat ([22]; foliage application): 0 (Herbicidal rate of 5% or less (almost no effect))
- herbicidal effect on J: blackgrass ([23]; foliage application): 0 (Herbicidal rate of 5% or less (almost no effect))
- herbicidal effect on K: Italian ryegrass ([24]; foliage application): 0 (Herbicidal rate of 5% or less (almost no effect))
- herbicidal effect on L: windgrass ([25]; foliage application): 0 (Herbicidal rate of 5% or less (almost no effect))
- herbicidal effect on M: velvetleaf ([26]; foliage application): 4 (Herbicidal rate of 70% or more and less than 90%)
- herbicidal effect on N: redroot pigweed ([27]; foliage application): 3 (Herbicidal rate of 40% or more and less than 70%)
- herbicidal effect on O: lambsquarters ([28]; foliage application): 3 (Herbicidal rate of 40% or more and less than 70%)
- herbicidal effect on P: chickweed ([29]; foliage application): 5 (Herbicidal rate of 90% or more (almost completely withered))
- herbicidal effect on R: persian speedwell ([30]; foliage application): 5 (Herbicidal rate of 90% or more (almost completely withered))

Structure (SMILES): CCCC(=O)Oc1c(C)nn(C)c(=O)c1-c1c(-c2ccccc2OC)sc2c(F)cccc12 [4-004]
- herbicidal effect rating, A: late watergrass [1]: 3 (Herbicidal rate of 40% or more and less than 70%)
- herbicidal effect rating, B: Japanese bulrush [2]: 0 (Herbicidal rate of 5% or less (almost no effect))
- herbicidal effect rating, C: oval-leafed pondweed [3]: 2 (Herbicidal rate of 20% or more and less than 40%)
- herbicidal effect on barnyard grass (H) ([4]; 320 g/ha): 4 (Herbicidal rate of 70% or more and less than 90%)
- herbicidal effect on Chinese sprangletop (D) ([5]; 320 g/ha): 3 (Herbicidal rate of 40% or more and less than 70%)
- herbicidal effect on rice flat sedge (E) ([6]; 320 g/ha): 4 (Herbicidal rate of 70% or more and less than 90%)
- Herbicidal effect by soil treatment, F: southern crabgrass [7]: 0 (Herbicidal rate of 5% or less (almost no effect))
- Herbicidal effect by soil treatment, G: green foxtail [8]: 0 (Herbicidal rate of 5% or less (almost no effect))
- Herbicidal effect by soil treatment, H: barnyard grass [9]: 1 (Herbicidal rate of 5% or more and less than 20%)
- Herbicidal effect by soil treatment, I: wild oat [10]: 0 (Herbicidal rate of 5% or less (almost no effect))
- Herbicidal effect by soil treatment, J: blackgrass [11]: 0 (Herbicidal rate of 5% or less (almost no effect))
- Herbicidal effect by soil treatment, K: Italian ryegrass [12]: 0 (Herbicidal rate of 5% or less (almost no effect))
- Herbicidal effect by soil treatment, L: windgrass [13]: 0 (Herbicidal rate of 5% or less (almost no effect))
- Herbicidal effect by soil treatment, M: velvetleaf [14]: 0 (Herbicidal rate of 5% or less (almost no effect))
- Herbicidal effect by soil treatment, N: redroot pigweed [15]: 3 (Herbicidal rate of 40% or more and less than 70%)
- Herbicidal effect by soil treatment, O: lambsquarters [16]: 3 (Herbicidal rate of 40% or more and less than 70%)
- Herbicidal effect by soil treatment, P: chickweed [17]: 1 (Herbicidal rate of 5% or more and less than 20%)
- Herbicidal effect by soil treatment, R: persian speedwell [18]: 0 (Herbicidal rate of 5% or less (almost no effect))
- herbicidal effect on F: southern crabgrass (evaluation grade 0-5) [19, 32]: 3 (Herbicidal rate of 40% or more and less than 70%)
- herbicidal effect on G: green foxtail (evaluation grade 0-5) [20, 32]: 4 (Herbicidal rate of 70% or more and less than 90%)
- herbicidal effect on H: barnyard grass (evaluation grade 0-5) [21, 32]: 3 (Herbicidal rate of 40% or more and less than 70%)
- herbicidal effect on I: wild oat (evaluation grade 0-5) [22, 32]: 0 (Herbicidal rate of 5% or less (almost no effect))
- herbicidal effect on J: blackgrass (evaluation grade 0-5) [23, 32]: 0 (Herbicidal rate of 5% or less (almost no effect))
- herbicidal effect on K: Italian ryegrass (evaluation grade 0-5) [24, 32]: 0 (Herbicidal rate of 5% or less (almost no effect))
- herbicidal effect on L: windgrass (evaluation grade 0-5) [25, 32]: 0 (Herbicidal rate of 5% or less (almost no effect))
- herbicidal effect on M: velvetleaf (evaluation grade 0-5) [26, 32]: 4 (Herbicidal rate of 70% or more and less than 90%)
- herbicidal effect on N: redroot pigweed (evaluation grade 0-5) [27, 32]: 5 (Herbicidal rate of 90% or more (almost completely withered))
- herbicidal effect on O: lambsquarters (evaluation grade 0-5) [28, 32]: 2 (Herbicidal rate of 20% or more and less than 40%)
- herbicidal effect on P: chickweed (evaluation grade 0-5) [29, 32]: 5 (Herbicidal rate of 90% or more (almost completely withered))
- herbicidal effect on R: persian speedwell (evaluation grade 0-5) [30, 32]: 4 (Herbicidal rate of 70% or more and less than 90%)
